Reference: PMC5872116, “Screening of E. coli β-clamp Inhibitors Revealed that Few Inhibit Helicobacter pylori More Effectively: Structural and Functional Characterization” (Antibiotics, 2018)

Columns and labels:
[1] = target: T1, Hpβ-clamp (Helicobacter pylori, UniProt O25242); test: SPR surface competition with HpDNA ligase, immobilised Hpβ-clamp (qualitative); type: binding; settings: competitive with HpDNA ligase; HBS-EP pH 7.4, 2% DMSO
T1 construct: gene dnaN; recombinant, expressed in E. coli BL21, Ni-NTA and gel filtration purified (His-tag implied); homodimer
T1 sequence (O25242 1-374): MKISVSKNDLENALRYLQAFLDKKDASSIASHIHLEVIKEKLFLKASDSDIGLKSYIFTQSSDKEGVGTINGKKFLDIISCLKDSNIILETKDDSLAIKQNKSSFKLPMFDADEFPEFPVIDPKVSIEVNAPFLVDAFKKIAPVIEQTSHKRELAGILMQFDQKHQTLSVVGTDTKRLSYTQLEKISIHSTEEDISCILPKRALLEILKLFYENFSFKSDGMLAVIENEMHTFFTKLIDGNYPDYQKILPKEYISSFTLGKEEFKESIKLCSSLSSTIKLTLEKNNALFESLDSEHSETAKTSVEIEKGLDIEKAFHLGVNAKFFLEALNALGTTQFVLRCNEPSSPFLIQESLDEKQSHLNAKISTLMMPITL

[2] = target: T1, Hpβ-clamp; test: co-crystal structure ([…] Å); also SPR surface competition with HpDNA ligase; type: binding; settings: subsite I of protein-protein interaction site; competitive with HpDNA ligase

O=[N+]([O-])c1ccc2cn[nH]c2c1 [C2, 6-nitroindazole]
SPR surface competition with HpDNA ligase, immobilised Hpβ-clamp (qualitative) [1]: All five shortlisted molecules showed competitive binding to β-clamp.

C[C@H](C(=O)O)c1ccc2c(c1)[nH]c1ccc(Cl)cc12 [C3, (S)-carprofen]
co-crystal structure (1.97 Å); also SPR surface competition with HpDNA ligase [2]: 5FXT (Hpβ-clamp complex with carprofen, C3)

O=[N+]([O-])c1ccc2[nH]ccc2c1 [C4, 5-nitroindole]
SPR surface competition with HpDNA ligase, immobilised Hpβ-clamp (qualitative) [1]: All five shortlisted molecules showed competitive binding to β-clamp.
